Like-named read-outs stand apart in the source and are kept apart here.
Tests used:
[1] = for Percent Loading Using MPEG 350: saturated solution, HPLC
Description: The solution is then stirred with a vortex mixer for approximately 1 to 2 minutes, then shaken with an automated shaker for about 45 minutes. […] The sample is then left overnight in a water bath at about 29° C.
The solution is stirred with a vortex mixer for approximately 1 to 2 minutes, then shaken with an automated shaker for about 45 minutes. […] The sample is left overnight in a water bath at about 30° C.
The solutions are then filtered through a syringe filter and the concentrations are characterized by HPLC. The percent water in the MPEG solutions varies from 0 to 20 percent.
The solution is then filtered through a syringe filter and the concentration is characterized by HPLC. The percent water in the MPEG solutions varies from 0 to 20 percent.

[2] = for Percent Loading Using PEG 400: saturated solution, HPLC
Description: For comparison, solutions of PEG 400 and water are prepared in an analogous manner to those including the MPEG 350.
For comparison, solutions of PEG 400 and water are prepared in an analogous manner.

Structure (SMILES)	Maximum solubility for MPEG 350:water blends greater than that for PEG 400:water blends [1]	Percent Loading Using MPEG 350 ([1]; 0 percent water in MPEG 350)	Percent Loading Using MPEG 350 ([1]; 5 percent water in MPEG 350)	Percent Loading Using MPEG 350 ([1]; 10 percent water in MPEG 350)	Percent Loading Using MPEG 350 ([1]; 15 percent water in MPEG 350)	Percent Loading Using MPEG 350 ([1]; 20 percent water in MPEG 350)	Loading with MPEG:water blends relative to PEG:water blends ([1]; when water is added)	Amount solubilized by neat PEG 400 solution relative to neat MPEG 350 solution [2]	Percent Loading Using PEG 400 ([2]; 0 percent water in PEG 400)	Percent Loading Using PEG 400 ([2]; 5 percent water in PEG 400)	Percent Loading Using PEG 400 ([2]; 10 percent water in PEG 400)	Percent Loading Using PEG 400 ([2]; 15 percent water in PEG 400)	Percent Loading Using PEG 400 ([2]; 20 percent water in PEG 400)	Solubility (maximum loading) in PEG 400 [2]	Increase in loading compared to the MPEG 350 solution containing no water ([1]; 95:5 MPEG 350:water vs MPEG 350 without water)	More loading with 95:5 MPEG 350:water blend compared to the best PEG 400:water blend ([1]; 95:5 MPEG 350:water vs PEG 400:water blend with highest loading)	Appearance of solution in MPEG 350 ([1]; approximately 15.4 weight percent solution, left overnight in water bath at about 30° C.)	Amount of drug loading in MPEG 350 solution higher than in PEG 400 solution ([1]; neat MPEG 350 vs neat PEG 400)
CC(=O)Nc1ccc(O)cc1 [Acetaminophen]	10.6%	16.20%	21.93%	23.62%	24.47%	24.01%	higher loading	slightly more	16.82%	20.62%	21.78%	22.12%	21.59%					
CC(C)Cc1ccc(C(C)C(=O)O)cc1 (centres unmarked) [Ibuprofen, ibuprofen]									21.60%	24.31%	21.48%	17.24%	11.56%	21.6±0.8 weight percent				
COc1ccc2cc([C@H](C)C(=O)O)ccc2c1 [Naproxen, naproxen]															24.4%	29.2 weight percent	some suspended material	approximately 13.6%

Reference: patent US8497303B2, “Method to enhance aqueous solubility of poorly soluble actives” (Dow Global Technologies LLC, priority 2008, dated 2013)
